Data on 28 compounds can be found in US6506756B2, “Substituted imidazoles as dual histamine H1 and H3 agonists or antagonists” (Schering Corporation, priority 2000, dated 2003).

Counter-ions that a name gives are not always drawn.

One data set concerns the target T1, H3 receptors (Cavia porcellus, UniProt Q9JI35).
T1 construct: The source of the H3 receptors in this experiment was guinea pig brain; from tissue; host or cells: guinea pig brain membranes
As to the kind of experiment: H3-receptor binding assay (guinea pig brain membranes, [3H]R-α-methyl histamine or [3H]Nα-methyl histamine). The conditions noted are these: for inhibition at 2 µg/mL: final concentration 2 μg/ml, HCl salt; for Ki: HCl salt of the indicated compound, read-out: H3 Ave Ki. On the procedure: General Procedure for H3-Receptor Binding Assay
The source of the H3 receptors in this experiment was guinea pig brain. The animals weighed 400-600 g. The brain tissue was homogenized with a solution of 50 mM Tris, pH 7.5. The final concentration of tissue in the homogenization buffer was 10% w/v. The homogenates were centrifuged at 1,000×g for 10 min. in order to remove clumps of tissue and debris. The resulting supernatants were then centrifuged at 50,000×g for 20 min. in order to sediment the membranes, which were next washed three times in homogenization buffer (50,000×g for 20 min. each). The membranes were frozen and stored at −70° C. until needed.
All compounds to be tested were dissolved in DMSO and then diluted into the binding buffer (50 mM Tris, pH 7.5) such that the final concentration was 2 μg/ml with 0.1% DMSO. Membranes were then added (400 μg of protein) to the reaction tubes. The reaction was started by the addition of 3 nM [^3H]R-α-methyl histamine (8.8 Ci/mmol) or 3 nM [^3H]N^α-methyl histamine (80 Ci/mmol) and continued under incubation at 30° C. for 30 min. Bound ligand was separated from unbound ligand by filtration, and the amount of radioactive ligand bound to the membranes was quantitated by liquid scintillation spectrometry. All incubations were performed in duplicate and the standard error was always less than 10%. Compounds that inhibited more than 70% of the specific binding of radioactive ligand to the receptor were serially diluted to determine a Ki (nM). The results are given in the Table 1 for the HCl salt of the indicated compound.

A further data set concerns the target T2, Histamine H1 receptor (Rattus norvegicus, UniProt P31390).
T2 construct: The tissue source was male Sprague-Dawley rat brain; tissue Rockland Corporation, Gilbertsville, Pa; host or cells: male Sprague-Dawley rat brain membranes
Nature of the data set: H1-receptor binding assay (rat brain membranes, [3H]pyrilamine). The conditions noted are these: for Ki: Cheng-Prusoff from IC50, HCl salt, read-out: H1 Ave Ki; for inhibition at 1 µg/mL: concentration not given (top test concentration 1 μg/ml), HCl salt. The text has this: General Procedure for H1-Receptor Binding Assay
The procedure used was based on that disclosed in V.T. Tran et al, “Histamine H1 receptors identified in mammalian brain membranes with [H-3]mepyramine”, Proc. Natl. Acad. Sci. U.S.A. 75 (1978) 6290-6294.
I. Tissue Preparation Protocol for Histamine H1 Receptor Binding Assay:
1. The tissue source was male Sprague-Dawley rat brain. These were purchased, stripped and frozen (available from Rockland Corporation, Gilbertsville, Pa.). The buffer used was ice-cold 50 mM Tris-HCl, pH 7.5. (The pH was determined at 25° C.)
2. The brains were spread out on plastic wrap on the benchtop and allowed to thaw for 10-15 min. After this, everything was kept ice-cold.
3. Two brains were put in each 50 ml round bottom centrifuge tube and 25 ml of buffer was added. Then they were broken up with a Polytron (from Brinkmann Instruments, Westbury, N.Y.) equipped with a PT-10 tip at setting 6 for 30 sec.
4. The volume in the tube was brought up to 45 ml and mixed and the particulate material was centrifuged at 1000×g (3000 rpm, SS-34 rotor) for 10 min to remove nuclei and unbroken cells.
5. Pellets were discarded and the supernatants were centrifuged 10 min at 50,000×g (20,000 rpm, SS-34 rotor).
6. The high-speed pellets were resuspended in a volume of Tris buffer equal to the original ([…]), the contents of all tubes were pooled, and a sample was taken for BCA protein assay. The material was aliquotted, 45 ml per round-bottom tube, and the resuspension was recentrifuged. The yield of protein was approximately 20 mg/brain, so there was about 40 mg of protein per tube.
7. Pellets were frozen at −80° C.
1. FDCL and comparative compounds for assay were independently solubilized at 1mg/ml DMSO by vortexing, or if necessary by sonication. The first dilution, 100-fold, was made in 50 mM Tris-HCl, pH 7.5, at room temperature. The three or four subsequent ten-fold serial dilutions were made in 1% DMSO/50 mM Tris-HCl, pH 7.5. Drug solutions and assay plates were kept at room temperature during the course of the assay set up.
2. Test compounds were assayed at four or five concentrations: 1, 0.1, 0.01, 0.001, and 0.0001 μg/ml. Twenty μl of drug solution was pipeted into each of three wells.
3. [^3H]Pyrilamine was diluted approximately 2000-fold with ice-cold […] Tris-HCl, pH 7.5 (to a working concentration of 20-25 nM), and put on ice.
4. A frozen tissue pellet was thawed in a 25° C. water bath, resuspended in 50 mM Tris-HCl, pH 7.5, at 1.7-2 mg/ml by brief break-up on the Polytron, and put on ice.
5. Twenty μl of diluted [^3H]pyrilamine was added to each well.
6. One hundred fifty μl of tissue suspension was added to each well.
7. The top of the plate was covered and it was placed in a 25° C. shaking water bath (about 60 oscillations/min) for 30 min.
8. Samples were filtered on a Tomtec Mach 2 harvester (available from Tomtec Corporation, Orange, Conn.) through a GF/B filter mat (from Wallac, Inc., Gaithersburg, Md.) presoaked in 0.3% polyethylenimine. Each sample was thrice washed with ice-cold 50 mM Tris-HCl, pH 7.5 dried 20 sec on the Tomtec, and dried 3-4 min in a microwave oven on a paper towel. The filter was impregnated with MELTILEX brand wax scintillant (from Wallac Corporation) and counted on a Betaplate scintillation counter (from Wallac Corporation).
9. Specific binding was determined as the difference between total and nonspecific binding. The percent inhibition in the presence of inhibitor or standard was determined using the formula: [1-(sample binding-nonspecific binding)/specific binding]×100 For compounds that inhibit more than 50% at 1 μg/ml, an IC50 value was interpolated from proximate concentrations. […]

T1 sequence (Q9JI35 whole entry): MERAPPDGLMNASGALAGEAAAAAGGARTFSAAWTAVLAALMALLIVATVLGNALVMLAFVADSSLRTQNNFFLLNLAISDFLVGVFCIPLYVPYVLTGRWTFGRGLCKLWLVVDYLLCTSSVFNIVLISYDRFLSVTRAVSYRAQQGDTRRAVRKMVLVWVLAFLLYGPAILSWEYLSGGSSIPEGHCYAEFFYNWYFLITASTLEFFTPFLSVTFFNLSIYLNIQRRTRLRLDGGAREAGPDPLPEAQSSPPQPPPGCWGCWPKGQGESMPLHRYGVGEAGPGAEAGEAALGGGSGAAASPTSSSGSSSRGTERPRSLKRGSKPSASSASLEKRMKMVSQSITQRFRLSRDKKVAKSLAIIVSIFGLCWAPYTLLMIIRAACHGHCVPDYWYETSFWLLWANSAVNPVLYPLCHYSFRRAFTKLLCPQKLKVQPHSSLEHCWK
T2 sequence (P31390 whole entry): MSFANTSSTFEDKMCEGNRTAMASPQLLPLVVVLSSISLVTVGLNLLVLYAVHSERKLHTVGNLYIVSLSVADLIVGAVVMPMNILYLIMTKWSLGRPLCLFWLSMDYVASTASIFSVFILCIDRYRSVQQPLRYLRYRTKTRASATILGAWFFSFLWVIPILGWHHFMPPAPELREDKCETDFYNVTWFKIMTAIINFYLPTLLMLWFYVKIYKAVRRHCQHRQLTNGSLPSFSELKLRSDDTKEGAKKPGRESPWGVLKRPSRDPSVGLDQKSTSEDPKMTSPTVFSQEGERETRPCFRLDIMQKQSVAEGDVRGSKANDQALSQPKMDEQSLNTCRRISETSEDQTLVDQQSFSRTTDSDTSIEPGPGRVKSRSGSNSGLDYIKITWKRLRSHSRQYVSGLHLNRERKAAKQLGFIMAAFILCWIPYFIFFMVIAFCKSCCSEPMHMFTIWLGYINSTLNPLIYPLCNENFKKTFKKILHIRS

Regarding `O=C(CCc1c[nH]cn1)N1CCC(=C2c3ccc(Cl)cc3CCc3cccnc32)CC1`, the inhibition at 2 µg/mL on H3 receptors is 47%.
On to `Clc1ccc2c(c1)CCc1cccnc1C2N1CCN(CCCCc2c[nH]cn2)CC1` (centres unmarked), for which the Ki on H3 receptors was found to be 68.5 nM; at Histamine H1 receptor, 31.5 nM.
The matching figures for `Clc1ccc2c(c1)CCc1cccnc1C2N1CCN(Cc2c[nH]cn2)CC1` (single isomer, unassigned; (+)) [(+)-(8-Chloro-6,11-dihydro-5H-benzo[5,6]cyclohepta[1,2-b]pyridin-11-yl)-4-[(1H-imidazol-4-yl)methyl]-piperazine]: 121 nM and 4.6 nM.
Regarding `Clc1ccc2c(c1)CCc1cccnc1C2C1CCN(Cc2c[nH]cn2)CC1` (single isomer, unassigned) [drawing 61], the Ki amounted to 91 nM on H3 receptors and 182 nM at Histamine H1 receptor.
`Clc1ccc2c(c1)CCc1cccnc1C2=C1CCN(CCCCCCc2c[nH]cn2)CC1` (as salt: hydrochloride) (hydrate or solvate) [Example 14, 8-Chloro-6,11-dihydro-11-[1-[6-(1H-imidazol-4-yl)hexyl]-4-piperidinylidene]-5H-benzo[5,6]cyclohepta[1,2-b]pyridine]: the melting point is 162 to 165 °C (dec.).
Consider `Clc1ccc2c(c1)CCc1cccnc1C2=C1CCN(Cc2c[nH]cn2)CC1`, for which the Ki on H3 receptors was found to be 660 nM; at Histamine H1 receptor it was 16 nM.
Regarding `Clc1ccc2c(c1)CCc1cccnc1C2N1CCN(CCCc2c[nH]cn2)CC1` (centres unmarked), the Ki at H3 receptors came to 173 nM; at Histamine H1 receptor, 7.5 nM.
Regarding `Clc1ccc2c(c1)CCc1cccnc1C2=C1CCN(CCCCCc2c[nH]cn2)CC1`, the Ki at H3 receptors is 26.5 nM; on Histamine H1 receptor it was 2.5 nM.
The matching figures for `Clc1ccc2c(c1)CCc1cccnc1C2C1CCN(CCCCc2c[nH]cn2)CC1` (centres unmarked): 42 nM and 14.3 nM.
The matching figures for `Clc1ccc2c(c1)CCc1cccnc1C2N1CCN(CCCCCc2c[nH]cn2)CC1` (centres unmarked): 32 nM and 12.5 nM.
For `Clc1ccc2c(c1)CCc1cccnc1C2=C1CCN(CCCCCCc2c[nH]cn2)CC1`, in that order: 33.5 nM and 12 nM.
For `Clc1ccc2c(c1)CCc1cccnc1C2C1CCN(CCCCCc2c[nH]cn2)CC1` (centres unmarked), the Ki on H3 receptors turned out to be 22.5 nM; at Histamine H1 receptor, 7 nM.
Turning to `O=C(OCCCCc1c[nH]cn1)N1CCN(C2c3ccc(Cl)cc3CCc3cccnc32)CC1` (centres unmarked), the Ki on H3 receptors turned out to be 148 nM. The inhibition at 1 µg/mL on Histamine H1 receptor came out at 36%.
As to `Clc1ccc2c(c1)CCc1cccnc1C2N1CCN(Cc2c[nH]cn2)CC1` (racemic) (as salt: HCl) (hydrate or solvate) [1-(8-Chloro-6,11-dihydro-5H-benzo[5,6]cyclohepta[1,2-b]pyridin-11-yl)-4-[(1H-imidazol-4-yl)-methyl]-piperazine], the melting point was 190.5 to 192 °C (dec.).
As for `Clc1ccc2c(c1)CCc1cccnc1C2N1CCN(Cc2c[nH]cn2)CC1` (racemic) [1-(8-Chloro-6,11-dihydro-5H-benzo[5,6]cyclohepta[1,2-b]pyridin-11-yl)-4-[(1H-imidazol-4-yl)-methyl]-piperazine], the values for the Ki at H3 receptors and at Histamine H1 receptor were 150 nM and 36.8 nM, respectively.
Turning to `O=C(CCc1c[nH]cn1)N1CCN(C2c3ccc(Cl)cc3CCc3cccnc32)CC1` (centres unmarked), at H3 receptors, the inhibition at 2 µg/mL stood at 44%. For the same compound, on Histamine H1 receptor, the Ki was found to be 200 nM.
In the case of `Clc1ccc2c(c1)CCc1cccnc1C2N1CCN(CCCCCCc2c[nH]cn2)CC1` (centres unmarked), the Ki at H3 receptors was determined as 41 nM; on Histamine H1 receptor, 8 nM.
Take `Clc1ccc2c(c1)CCc1cccnc1C2C1CCN(CCCCCCc2c[nH]cn2)CC1` (centres unmarked): the Ki worked out at 27.5 nM on H3 receptors and 5.5 nM at Histamine H1 receptor.
For `Clc1ccc2c(c1)CCc1cccnc1C2N1CCN(Cc2c[nH]cn2)CC1` (single isomer, unassigned; (-)) [(−)-(8-Chloro-6,11-dihydro-5H-benzo[5,6]cyclohepta[1,2-b]pyridin-11-yl)-4-[(1H-imidazol-4-yl)methyl]-piperazine], in that order: 133 nM and 15.4 nM.
Turning to `Clc1ccc2c(c1)CCc1cccnc1C2C1CCN(Cc2c[nH]cn2)CC1` (single isomer, unassigned) [drawing 60], the inhibition at 2 µg/mL at H3 receptors was determined as 15%. Further, the Ki on Histamine H1 receptor worked out at 1.2 nM.
Turning to `Clc1ccc2c(c1)CCc1cccnc1C2N1CCN(CCCCc2c[nH]cn2)CC1` (centres unmarked) (as salt: HCl) [Example 12, 8-Chloro-6,11-dihydro-11-[4-[4-(1H-imidazol4-yl)butyl]-1-piperazinyl]-5H-benzo[5,6]cyclohepta[1,2-b]pyridine], the melting point is 165 to 170 °C (dec.).
As to `Clc1ccc2c(c1)CCc1cccnc1C2N1CCN(CCc2c[nH]cn2)CC1` (centres unmarked), the inhibition at 2 µg/mL at H3 receptors was found to be 53%. Moreover, the Ki at Histamine H1 receptor came to 5.6 nM.
`Clc1ccc2c(c1)CCc1cccnc1C2C1CCN(CCCCCc2c[nH]cn2)CC1` (centres unmarked) (as salt: hydrochloride) [Example 13, 8-chloro-6,11-dihydro-11-[1-[5-(1H-imidazol-4-yl)pentyl]-4-piperidinyl]-5H-benzo[5,6]cyclohepta[1,2-b]pyridine]: the melting point is 164 to 170 °C (dec.).
In the case of `Clc1ccc2c(c1)CCc1cccnc1C2=C1CCN(CCCCc2c[nH]cn2)CC1`, the values for the Ki at H3 receptors and at Histamine H1 receptor were 25.2 nM and 10.5 nM, respectively.
The matching figures for `O=C(NCCCCc1c[nH]cn1)N1CCN(C2c3ccc(Cl)cc3CCc3cccnc32)CC1` (centres unmarked): 47 nM and 250 nM.
For `Clc1ccc2c(c1)CCc1cccnc1C2=C1CCN(CCCc2c[nH]cn2)CC1`, in that order: 260 nM and 4.1 nM.
In the case of `Cn1cnc(CN2CCN(C3c4ccc(Cl)cc4CCc4cccnc43)CC2)c1` (centres unmarked), at H3 receptors, the inhibition at 2 µg/mL amounted to 5%. In addition, at Histamine H1 receptor, the Ki was found to be 24 nM and the inhibition at 1 µg/mL stood at 84%.
For `O=C(c1c[nH]cn1)N1CCN(C2c3ccc(Cl)cc3CCc3cccnc32)CC1` (centres unmarked), in that order: 18%, 300 nM and 42%.
